# Data reported in patent publication US12077503B2, “Substituted cyclic amides and their use as herbicides” (FMC CORPORATION, priority 2015, dated 2024).
# Experiments:
# Assay in all cases: Test C preemergence
# Format in all cases: in vivo
# [1] = test system: ragweed (common ragweed, Ambrosia elatior); conditions: for Plant response rating, Ragweed: scale 0 to 100, 0 no effect, 100 complete control
# Procedure, shortened: (§1)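 Visual 0 (no effect) to 100 (complete control) ratings versus controls, taken 13–15 d after treatment in the greenhouse; dash means no result. Compounds in a surfactant-containing non-phytotoxic solvent blend were applied preemergence to seeds in loam-sand soil or postemergence to 1- to 4-leaf plants (2–18 cm) in peat-based medium.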
# [2] = test system: nutsedge, yellow (yellow nutsedge, Cyperus esculentus); conditions: for Plant response rating, Nutsedge, Yellow: scale 0 to 100, 0 no effect, 100 complete control
# Procedure, shortened: as §1
# corn (Zea mays) = conditions: for Plant response rating, Corn: scale 0 to 100, 0 no effect, 100 complete control
# Procedure, shortened: as §1
# [3] = test system: blackgrass (Alopecurus myosuroides); conditions: for Plant response rating, Blackgrass: scale 0 to 100, 0 no effect, 100 complete control
# Procedure, shortened: as §1
# [4] = test system: oilseed rape (Brassica napus); conditions: for Plant response rating, Oilseed Rape: scale 0 to 100, 0 no effect, 100 complete control
# Procedure, shortened: as §1
# [5] = test system: pigweed (Amaranthus retroflexus); conditions: for Plant response rating, Pigweed: scale 0 to 100, 0 no effect, 100 complete control
# Procedure, shortened: as §1
# [6] = test system: crabgrass, large (large crabgrass, Digitaria sanguinalis); conditions: for Plant response rating, Crabgrass, Large: scale 0 to 100, 0 no effect, 100 complete control
# Procedure, shortened: as §1
# [7] = test system: waterhemp (common waterhemp, Amaranthus rudis); conditions: for Plant response rating, Waterhemp: scale 0 to 100, 0 no effect, 100 complete control
# Procedure, shortened: as §1
# [8] = test system: Galium (catchweed bedstraw, Galium aparine); conditions: for Plant response rating, Galium: scale 0 to 100, 0 no effect, 100 complete control
# Procedure, shortened: as §1
# [9] = test system: foxtail, giant (giant foxtail, Setaria faberii); conditions: for Plant response rating, Foxtail, Giant: scale 0 to 100, 0 no effect, 100 complete control
# Procedure, shortened: as §1
# [10] = test system: lambsquarters (Chenopodium album); conditions: for Plant response rating, Lambsquarters: scale 0 to 100, 0 no effect, 100 complete control
# Procedure, shortened: as §1
# [11] = test system: johnsongrass (Sorghum halepense); conditions: for Plant response rating, Johnsongrass: scale 0 to 100, 0 no effect, 100 complete control
# Procedure, shortened: as §1
# [12] = test system: wheat (winter wheat, Triticum aestivum); conditions: for Plant response rating, Wheat: scale 0 to 100, 0 no effect, 100 complete control
# Procedure, shortened: as §1
# [13] = test system: ryegrass, Italian (Italian ryegrass, Lolium multiflorum); conditions: for Plant response rating, Ryegrass, Italian: scale 0 to 100, 0 no effect, 100 complete control
# Procedure, shortened: as §1
# [14] = test system: velvetleaf (Abutilon theophrasti); conditions: for Plant response rating, Velvetleaf: scale 0 to 100, 0 no effect, 100 complete control
# Procedure, shortened: as §1
# [15] = test system: barnyardgrass (Echinochloa crus-galli); conditions: for Plant response rating, Barnyardgrass: scale 0 to 100, 0 no effect, 100 complete control
# Procedure, shortened: as §1
# [16] = test system: morningglory (Ipomoea coccinea); conditions: for Plant response rating, Morningglory: scale 0 to 100, 0 no effect, 100 complete control
# Procedure, shortened: as §1
# [17] = 31 g ai/ha, 0 is no effect, 100 is complete control
smiles,measurement,setting,value
CN1CC(c2ccc(C(F)(F)F)cc2)C(C(=S)Nc2ccccc2F)C1=O (stereo not drawn) [Compound 450],"Plant response rating, Ragweed",[1]; 31 g ai/ha,5
same,"Plant response rating, Ragweed",[1]; 62 g ai/ha,10
same,"Plant response rating, Ragweed",[1]; 125 g ai/ha,20
same,"Plant response rating, Ragweed",[1]; 250 g ai/ha,60
same,"Plant response rating, Nutsedge, Yellow",[2]; 31 g ai/ha,0
same,"Plant response rating, Nutsedge, Yellow",[2]; 62 g ai/ha,0
same,"Plant response rating, Nutsedge, Yellow",[2]; 125 g ai/ha,0
same,"Plant response rating, Nutsedge, Yellow",[2]; 250 g ai/ha,0
same,"Plant response rating, Corn",corn (Zea mays); 31 g ai/ha,5
same,"Plant response rating, Corn",corn (Zea mays); 62 g ai/ha,5
same,"Plant response rating, Corn",corn (Zea mays); 125 g ai/ha,20
same,"Plant response rating, Corn",corn (Zea mays); 250 g ai/ha,65
same,"Plant response rating, Blackgrass",[3]; 31 g ai/ha,0
same,"Plant response rating, Blackgrass",[3]; 62 g ai/ha,0
same,"Plant response rating, Blackgrass",[3]; 125 g ai/ha,45
same,"Plant response rating, Blackgrass",[3]; 250 g ai/ha,60
same,"Plant response rating, Oilseed Rape",[4]; 31 g ai/ha,30
same,"Plant response rating, Oilseed Rape",[4]; 62 g ai/ha,30
same,"Plant response rating, Oilseed Rape",[4]; 125 g ai/ha,20
same,"Plant response rating, Oilseed Rape",[4]; 250 g ai/ha,60
same,"Plant response rating, Pigweed",[5]; 31 g ai/ha,55
same,"Plant response rating, Pigweed",[5]; 62 g ai/ha,60
same,"Plant response rating, Pigweed",[5]; 125 g ai/ha,80
same,"Plant response rating, Pigweed",[5]; 250 g ai/ha,80
same,"Plant response rating, Crabgrass, Large",[6]; 31 g ai/ha,90
same,"Plant response rating, Crabgrass, Large",[6]; 62 g ai/ha,90
same,"Plant response rating, Crabgrass, Large",[6]; 125 g ai/ha,90
same,"Plant response rating, Crabgrass, Large",[6]; 250 g ai/ha,95
same,"Plant response rating, Waterhemp",[7]; 62 g ai/ha,60
same,"Plant response rating, Waterhemp",[7]; 125 g ai/ha,75
same,"Plant response rating, Waterhemp",[7]; 250 g ai/ha,85
same,"Plant response rating, Galium",[8]; 31 g ai/ha,50
same,"Plant response rating, Galium",[8]; 62 g ai/ha,90
same,"Plant response rating, Galium",[8]; 125 g ai/ha,90
same,"Plant response rating, Galium",[8]; 250 g ai/ha,95
same,"Plant response rating, Foxtail, Giant",[9]; 31 g ai/ha,90
same,"Plant response rating, Foxtail, Giant",[9]; 62 g ai/ha,90
same,"Plant response rating, Foxtail, Giant",[9]; 125 g ai/ha,90
same,"Plant response rating, Foxtail, Giant",[9]; 250 g ai/ha,95
same,"Plant response rating, Lambsquarters",[10]; 31 g ai/ha,55
same,"Plant response rating, Lambsquarters",[10]; 62 g ai/ha,50
same,"Plant response rating, Lambsquarters",[10]; 125 g ai/ha,65
same,"Plant response rating, Lambsquarters",[10]; 250 g ai/ha,65
same,"Plant response rating, Johnsongrass",[11]; 31 g ai/ha,0
same,"Plant response rating, Johnsongrass",[11]; 62 g ai/ha,0
same,"Plant response rating, Johnsongrass",[11]; 125 g ai/ha,20
same,"Plant response rating, Johnsongrass",[11]; 250 g ai/ha,50
same,"Plant response rating, Wheat",[12]; 62 g ai/ha,30
same,"Plant response rating, Wheat",[12]; 125 g ai/ha,40
same,"Plant response rating, Wheat",[12]; 250 g ai/ha,60
same,"Plant response rating, Ryegrass, Italian",[13]; 62 g ai/ha,0
same,"Plant response rating, Ryegrass, Italian",[13]; 125 g ai/ha,0
same,"Plant response rating, Ryegrass, Italian",[13]; 250 g ai/ha,30
same,"Plant response rating, Velvetleaf",[14]; 62 g ai/ha,0
same,"Plant response rating, Velvetleaf",[14]; 125 g ai/ha,10
same,"Plant response rating, Velvetleaf",[14]; 250 g ai/ha,50
same,"Plant response rating, Barnyardgrass",[15]; 31 g ai/ha,90
same,"Plant response rating, Barnyardgrass",[15]; 62 g ai/ha,90
same,"Plant response rating, Barnyardgrass",[15]; 125 g ai/ha,90
same,"Plant response rating, Barnyardgrass",[15]; 250 g ai/ha,95
same,"Plant response rating, Morningglory",[16]; 31 g ai/ha,0
same,"Plant response rating, Morningglory",[16]; 62 g ai/ha,0
same,"Plant response rating, Morningglory",[16]; 125 g ai/ha,20
same,"Plant response rating, Morningglory",[16]; 250 g ai/ha,10
O=C1NCC(c2cc(F)cc(Cl)c2)C1C(=O)Nc1cccc(F)c1F (stereo not drawn) [Compound 492],"Plant response rating (scale of 0 to 100), Ragweed",[1]; [17],0
same,"Plant response rating, Ragweed",[1]; 62 g ai/ha,10
same,"Plant response rating, Ragweed",[1]; 125 g ai/ha,35
same,"Plant response rating, Ragweed",[1]; 250 g ai/ha,45
same,"Plant response rating (scale of 0 to 100), Nutsedge, Yellow",[2]; [17],0
same,"Plant response rating, Nutsedge, Yellow",[2]; 62 g ai/ha,0
same,"Plant response rating, Nutsedge, Yellow",[2]; 125 g ai/ha,0
same,"Plant response rating, Nutsedge, Yellow",[2]; 250 g ai/ha,0
same,"Plant response rating (scale of 0 to 100), Corn",corn (Zea mays); [17],0
same,"Plant response rating, Corn",corn (Zea mays); 62 g ai/ha,10
same,"Plant response rating, Corn",corn (Zea mays); 125 g ai/ha,55
same,"Plant response rating, Corn",corn (Zea mays); 250 g ai/ha,85
same,"Plant response rating (scale of 0 to 100), Blackgrass",[3]; [17],0
same,"Plant response rating, Blackgrass",[3]; 62 g ai/ha,5
same,"Plant response rating, Blackgrass",[3]; 125 g ai/ha,10
same,"Plant response rating, Blackgrass",[3]; 250 g ai/ha,10
same,"Plant response rating (scale of 0 to 100), Oilseed Rape",[4]; [17],0
same,"Plant response rating, Oilseed Rape",[4]; 62 g ai/ha,50
same,"Plant response rating, Oilseed Rape",[4]; 125 g ai/ha,85
same,"Plant response rating, Oilseed Rape",[4]; 250 g ai/ha,85
same,"Plant response rating (scale of 0 to 100), Pigweed",[5]; [17],0
same,"Plant response rating, Pigweed",[5]; 62 g ai/ha,25
same,"Plant response rating, Pigweed",[5]; 125 g ai/ha,75
same,"Plant response rating, Pigweed",[5]; 250 g ai/ha,80
same,"Plant response rating (scale of 0 to 100), Crabgrass, Large",[6]; [17],90
same,"Plant response rating, Crabgrass, Large",[6]; 62 g ai/ha,95
same,"Plant response rating, Crabgrass, Large",[6]; 125 g ai/ha,95
same,"Plant response rating, Crabgrass, Large",[6]; 250 g ai/ha,95
same,"Plant response rating (scale of 0 to 100), Waterhemp",[7]; [17],0
same,"Plant response rating, Waterhemp",[7]; 62 g ai/ha,10
same,"Plant response rating, Waterhemp",[7]; 125 g ai/ha,40
same,"Plant response rating, Waterhemp",[7]; 250 g ai/ha,65
same,"Plant response rating (scale of 0 to 100), Galium",[8]; [17],85
same,"Plant response rating, Galium",[8]; 62 g ai/ha,0
same,"Plant response rating, Galium",[8]; 125 g ai/ha,0
same,"Plant response rating, Galium",[8]; 250 g ai/ha,85
same,"Plant response rating (scale of 0 to 100), Foxtail, Giant",[9]; [17],90
same,"Plant response rating, Foxtail, Giant",[9]; 62 g ai/ha,90
same,"Plant response rating, Foxtail, Giant",[9]; 125 g ai/ha,90
same,"Plant response rating, Foxtail, Giant",[9]; 250 g ai/ha,95
same,"Plant response rating (scale of 0 to 100), Lambsquarters",[10]; [17],25
same,"Plant response rating, Lambsquarters",[10]; 62 g ai/ha,35
same,"Plant response rating, Lambsquarters",[10]; 125 g ai/ha,40
same,"Plant response rating, Lambsquarters",[10]; 250 g ai/ha,50
same,"Plant response rating (scale of 0 to 100), Johnsongrass",[11]; [17],20
same,"Plant response rating, Johnsongrass",[11]; 62 g ai/ha,55
same,"Plant response rating, Johnsongrass",[11]; 125 g ai/ha,80
same,"Plant response rating, Johnsongrass",[11]; 250 g ai/ha,90
same,"Plant response rating (scale of 0 to 100), Wheat",[12]; [17],0
same,"Plant response rating, Wheat",[12]; 62 g ai/ha,0
same,"Plant response rating, Wheat",[12]; 125 g ai/ha,5
same,"Plant response rating, Wheat",[12]; 250 g ai/ha,35
same,"Plant response rating (scale of 0 to 100), Ryegrass, Italian",[13]; [17],0
same,"Plant response rating, Ryegrass, Italian",[13]; 62 g ai/ha,5
same,"Plant response rating, Ryegrass, Italian",[13]; 125 g ai/ha,25
same,"Plant response rating, Ryegrass, Italian",[13]; 250 g ai/ha,20
same,"Plant response rating (scale of 0 to 100), Velvetleaf",[14]; [17],0
same,"Plant response rating, Velvetleaf",[14]; 62 g ai/ha,0
same,"Plant response rating, Velvetleaf",[14]; 125 g ai/ha,5
same,"Plant response rating, Velvetleaf",[14]; 250 g ai/ha,5
same,"Plant response rating (scale of 0 to 100), Barnyardgrass",[15]; [17],80
same,"Plant response rating, Barnyardgrass",[15]; 62 g ai/ha,90
same,"Plant response rating, Barnyardgrass",[15]; 125 g ai/ha,90
same,"Plant response rating, Barnyardgrass",[15]; 250 g ai/ha,95
same,"Plant response rating (scale of 0 to 100), Morningglory",[16]; [17],0
same,"Plant response rating, Morningglory",[16]; 62 g ai/ha,10
same,"Plant response rating, Morningglory",[16]; 125 g ai/ha,20
same,"Plant response rating, Morningglory",[16]; 250 g ai/ha,45
